In ChEMBL document CHEMBL3734717, “New INH-pyrazole analogs: Design, synthesis and evaluation of antitubercular and antibacterial activity” (Bioorg Med Chem Lett, 2015):
≈ marks a conversion by molar mass, not a printed value. Calls of active or inactive are those of the source. No cut-off for these calls is given here.

Legend:
Pseudomonas aeruginosa [1] = test: Antibacterial activity against Pseudomonas aeruginosa assessed as zone of inhibition at 75 ug/ml incubated for 18-24 hrs at 37 degC by disc diffusion method; assay type: functional; conditions: for zone of inhibition at 75 µg/mL: read-out: IZ
Staphylococcus aureus [2] = test: Antibacterial activity against Staphylococcus aureus assessed as zone of inhibition at 75 ug/ml incubated for 18-24 hrs at 37 degC by disc diffusion method; assay type: functional; conditions: read-out: IZ
Escherichia coli [3] = test: Antibacterial activity against Escherichia coli assessed as zone of inhibition at 50 ug/ml incubated for 18-24 hrs at 37 degC by disc diffusion method; assay type: functional; conditions: for zone of inhibition at 50 µg/mL: read-out: IZ
Pseudomonas aeruginosa [4] = test: Antibacterial activity against Pseudomonas aeruginosa assessed as zone of inhibition at 50 ug/ml incubated for 18-24 hrs at 37 degC by disc diffusion method; assay type: functional; conditions: for zone of inhibition at 50 µg/mL: read-out: IZ
Escherichia coli [5] = test: Antibacterial activity against Escherichia coli assessed as zone of inhibition at 75 ug/ml incubated for 18-24 hrs at 37 degC by disc diffusion method; assay type: functional; conditions: for zone of inhibition at 75 µg/mL: read-out: IZ
Staphylococcus aureus [6] = test: Antibacterial activity against Staphylococcus aureus assessed as zone of inhibition at 50 ug/ml incubated for 18-24 hrs at 37 degC by disc diffusion method; assay type: functional; conditions: read-out: IZ
[7] = test system: Mycobacterium tuberculosis; test: Antitubercular activity against Mycobacterium tuberculosis H37Rv assessed as inhibition of cell growth after 5 days by microplate alamar blue assay; assay type: functional; conditions: 120 h
[8] = Cytotoxicity against African green monkey Vero cells assessed as growth inhibition at 62.5 ug/ml after 3 days by MTT assay; assay type: cell-based; conditions: chlorocebus sabaeus, read-out: GI
Vero = test: Cytotoxicity against African green monkey Vero cells assessed as growth inhibition after 3 days by MTT assay; assay type: cell-based; conditions: Chlorocebus sabaeus, 72 h
[9] = Selectivity index, ratio of IC50 for African green monkey Vero cells to MIC for Mycobacterium tuberculosis H37Rv; assay type: toxicity, cell-based; conditions: read-out: Selectivity Index

Structure (SMILES) | zone of inhibition at 75 µg/mL (Pseudomonas aeruginosa [1]) | zone of inhibition at 75 µg/mL (Staphylococcus aureus [2]) | zone of inhibition at 50 µg/mL (Escherichia coli [3]) | zone of inhibition at 50 µg/mL (Pseudomonas aeruginosa [4]) | zone of inhibition at 75 µg/mL (Escherichia coli [5]) | zone of inhibition at 50 µg/mL (Staphylococcus aureus [6]) | MIC [7] | inhibition at 72 h, 62.5 ug/ml [8] | IC50 (Vero) | selectivity ratio [9] | inhibition zone (IZ) (Pseudomonas aeruginosa [1]) | inhibition zone (IZ) (Escherichia coli [3]) | inhibition zone (IZ) (Pseudomonas aeruginosa [4]) | inhibition zone (IZ) (Escherichia coli [5])
O=C(O)c1cn(C2CC2)c2cc(N3CCNCC3)c(F)cc2c1=O [CIPROFLOXACIN] | 21 mm | 26 mm | 27 mm | 18 mm | 32 mm | 21 mm | – | – | – | – | – | – | – | –
COc1ccc(C(=O)N(/N=C/c2c[nH]nc2-c2cccc(Cl)c2)C(=O)c2ccncc2)cc1 | 14 mm | 10 mm | 9 mm | 11 mm | 11 mm | 7 mm | 109 µM (≈ 50 µg/mL) | – | – | – | – | – | – | –
COc1ccc(C(=O)N(/N=C/c2c[nH]nc2-c2ccc(Cl)cc2)C(=O)c2ccncc2)cc1 | 13 mm | 12 mm | 7 mm | 10 mm | 9 mm | 10 mm | 109 µM (≈ 50 µg/mL) | – | – | – | – | – | – | –
O=C(c1ccncc1)N(/N=C/c1c[nH]nc1-c1ccc(Cl)cc1)C(=O)c1ccccc1Cl | 19 mm | 18 mm | 16 mm | 15 mm | 19 mm | 14 mm | 53.8 µM (≈ 25 µg/mL) | – | – | – | – | – | – | –
O=C(c1ccncc1)N(/N=C/c1c[nH]nc1-c1cccc(Cl)c1)C(=O)c1ccc(CCl)cc1 | 20 mm | 17 mm | 14 mm | 18 mm | 16 mm | 14 mm | 52.3 µM (≈ 25 µg/mL) | – | – | – | – | – | – | –
O=C(c1ccncc1)N(/N=C/c1c[nH]nc1-c1ccc(Cl)cc1)C(=O)c1ccc(CCl)cc1 | 20 mm | 16 mm | 15 mm | 18 mm | 19 mm | 13 mm | 13.1 µM (≈ 6.27 µg/mL) | 12% | > 1000 µg/mL | > 160 | – | – | – | –
O=C(c1ccncc1)N(/N=C/c1c[nH]nc1-c1ccc(Cl)cc1)C(=O)c1ccc(F)cc1 | 17 mm | 17 mm | 17 mm | 14 mm | 19 mm | 14 mm | 112 µM (≈ 50 µg/mL) | – | – | – | – | – | – | –
COc1ccc(C(=O)N(/N=C/c2c[nH]nc2-c2cccc(Cl)c2)C(=O)c2ccncc2)cc1OC | – | 10 mm | – | – | – | 8 mm | 102 µM (≈ 50 µg/mL) | – | – | – | inactive | inactive | inactive | inactive
NC(=O)c1cnccn1 [PYRAZINAMIDE] | – | – | – | – | – | – | 406 µM (≈ 50 µg/mL) | – | – | – | – | – | – | –
O=C(c1ccccc1)N(/N=C/c1c[nH]nc1-c1ccc(Cl)cc1)C(=O)c1ccncc1 | 12 mm | 11 mm | – | 10 mm | – | 9 mm | 116 µM (≈ 50 µg/mL) | – | – | – | – | inactive | – | inactive
COc1ccc(C(=O)N(/N=C/c2c[nH]nc2-c2ccc(Cl)cc2)C(=O)c2ccncc2)cc1OC | 11 mm | 10 mm | 6 mm | 9 mm | 9 mm | 8 mm | 102 µM (≈ 50 µg/mL) | – | – | – | – | – | – | –
O=C(N/N=C/c1c[nH]nc1-c1ccc(Cl)cc1)c1ccncc1 | 18 mm | 19 mm | 14 mm | 14 mm | 16 mm | 16 mm | 38.4 µM (≈ 12.5 µg/mL) | – | – | – | – | – | – | –
O=C(c1ccncc1)N(/N=C/c1c[nH]nc1-c1ccc(Cl)cc1)C(=O)c1ccc(Cl)cc1 | 21 mm | 24 mm | 19 mm | 18 mm | 24 mm | 21 mm | 53.8 µM (≈ 25 µg/mL) | – | – | – | – | – | – | –
O=C(c1ccccc1)N(/N=C/c1c[nH]nc1-c1cccc(Cl)c1)C(=O)c1ccncc1 | – | 13 mm | – | – | – | 11 mm | 116 µM (≈ 50 µg/mL) | – | – | – | inactive | inactive | inactive | inactive
O=C(c1ccncc1)N(/N=C/c1c[nH]nc1-c1cccc(Cl)c1)C(=O)c1ccc(F)cc1 | 17 mm | 16 mm | 12 mm | 13 mm | 14 mm | 13 mm | 3.6 µM (≈ 1.61 µg/mL) | 17.8% | > 1000 µg/mL | > 625 | – | – | – | –
CC[C@@H](CO)NCCN[C@@H](CC)CO [ETHAMBUTOL] | – | – | – | – | – | – | 15.3 µM (≈ 3.13 µg/mL) | – | – | – | – | – | – | –
Cc1ccc(C(=O)N(/N=C/c2c[nH]nc2-c2ccc(Cl)cc2)C(=O)c2ccncc2)cc1 | 15 mm | 20 mm | 12 mm | 11 mm | 14 mm | 17 mm | 113 µM (≈ 50 µg/mL) | – | – | – | – | – | – | –
O=C(c1ccncc1)N(/N=C/c1c[nH]nc1-c1cccc(Cl)c1)C(=O)c1ccccc1Cl | 16 mm | 15 mm | 14 mm | 12 mm | 18 mm | 13 mm | 1.7 µM (≈ 0.789 µg/mL) | 14.9% | 513 µg/mL (≈ 1110 µM) | 642 | – | – | – | –
O=C(c1ccncc1)N(/N=C/c1c[nH]nc1-c1ccc(Cl)cc1)C(=O)c1ccc([N+](=O)[O-])cc1 | 17 mm | 19 mm | 18 mm | 15 mm | 20 mm | 17 mm | 26.3 µM (≈ 12.5 µg/mL) | – | – | – | – | – | – | –
Cc1ccc(C(=O)N(/N=C/c2c[nH]nc2-c2cccc(Cl)c2)C(=O)c2ccncc2)cc1 | 10 mm | 12 mm | 8 mm | 8 mm | 11 mm | 10 mm | 113 µM (≈ 50 µg/mL) | – | – | – | – | – | – | –
O=C(c1ccncc1)N(/N=C/c1c[nH]nc1-c1cccc(Cl)c1)C(=O)c1ccc(Cl)cc1 | 21 mm | 23 mm | 21 mm | 19 mm | 25 mm | 18 mm | 3.4 µM (≈ 1.58 µg/mL) | 10.5% | > 1000 µg/mL | > 625 | – | – | – | –
NNC(=O)c1ccncc1 [ISONIAZID] | – | – | – | – | – | – | 0.7 µM (≈ 0.096 µg/mL) | – | – | – | – | – | – | –
O=C(N/N=C/c1c[nH]nc1-c1cccc(Cl)c1)c1ccncc1 | 19 mm | 23 mm | 20 mm | 15 mm | 24 mm | 18 mm | 4.9 µM (≈ 1.6 µg/mL) | 26.3% | > 1000 µg/mL | > 625 | – | – | – | –
O=C(c1ccncc1)N(/N=C/c1c[nH]nc1-c1cccc(Cl)c1)C(=O)c1ccc([N+](=O)[O-])cc1 | 14 mm | 17 mm | 13 mm | 11 mm | 15 mm | 14 mm | 26.3 µM (≈ 12.5 µg/mL) | – | – | – | – | – | – | –
